Measured values as given in patent US9249147B2, “Tyrosine kinase inhibitors” (CHEMBRIDGE CORPORATION, priority 2008, dated 2016).
pIC50: −log10 of the molar value.

Tests used:
Assay type in all cases: biochemical
IRK = target: T1, IRK (Homo sapiens, UniProt P06213); assay: IRK (insulin receptor kinase) assay; settings: Table 1; read-out: IRK IC50
T1 construct: 6×His- or GST-tagged kinase domain fragments of the corresponding RTKs expressed in baculovirus system; host or cells: baculovirus system
Description: (§1) To determine inhibition of several tyrosine kinases, such as IGF1R, InsR, Alk, TrkA and Jak2, kinase assays are conducted using either Kinase-Glo (Promega) or AlphaScreen (PerkinElmer) kinase assay platforms. The Kinase-Glo Luminescent Kinase Assay is a homogeneous method for measuring kinase activity by determining the amount of ATP remaining after a kinase reaction. The luminescent signal is proportional to the amount of ATP and inversely proportional to the amount of kinase activity. Tyrosine kinase PT66 AlphaScreen Assay is a high-sensitivity homogeneous, anti-phosphotyrosine antibody-mediated luminescent proximity method measuring incorporation of phosphate in synthetic poly(Glu-Tyr) substrate. The kinase preparations used consist of purified recombinant, 6×His- or GST-tagged kinase domain fragments of the corresponding RTKs expressed in baculovirus system.
(§2) Compounds with a range of concentrations 40 μM, 20 μM, 10 μM, 5 μM, 2.5 μM, 1.25 μM, 0.625 μM, 0.3125 μM, 0.15625 μM and 0.078125 μM were incubated with NPM-ALK, which was produced in insect cells as a 6×HIS-tagged fusion protein and purified using nickel-charged resin chromatography, for 30 minutes at RT in the presence of 10 μM ATP and 7.0 ng biotinylated poly-GT. A 1:1 mixture of […] and donor beads was then added to the reaction and incubated for an additional 60 minutes at RT. The assay was conducted on a MultiPROBE liquid handling workstation (PerkinElmer) in a 384-well plate format with a total reaction volume of 40 μL per well. Working stocks of all compounds were dissolved in 100% DMSO and serial dilutions of the compounds were performed using kinase buffer (50 mM Tris-HCl (pH 7.5), 5 mM MgCl2, 5 mM MnCl2, 2 mM DTT (added freshly before use), 0.01% Tween-20) containing 5% DMSO. […] Data were collected as optical readings at 520-680 nm on a Fusion™ microplate analyzer (PerkinElmer), and IC50 and Ki values calculated using PRISM3.0 software (GraphPad Software, Inc., San Diego, Calif.). The same assay was also used with minor modifications to assess the IC50 and Ki values for selected compounds against five other tyrosine kinases (IRK, IGF1R, Flt3, Abl, Src), all of which were purchased from commercial vendors. PolyGT-Biotin was bought from CIS Biointernational Cat. #61GT0BLD; ATP—from Sigma Cat. # A7699; sodium orthovanadate—from Sigma Cat. #S-6508; phosphotyrosine (PT66) assay kit from PerkinElmer Cat. #6760602M; automated workstation tips (20 μL): PerkinElmer Cat. #6000657; and OptiPlate-384 (white)—from PerkinElmer Cat. #6007299.

ALK = ALK (Homo sapiens, UniProt Q9UM73); assay: ALK kinase assay (Kinase-Glo / AlphaScreen, purified NPM-ALK); set-up: fused to the complete intracytoplasmic portion of ALK containing the functional tyrosine kinase domain; 6xHis; made in house; host or cells: insect cells; the other entry of the earlier key: NPM1 (P06748, Nucleophosmin); settings: Table 1; read-out: ALK IC50
IGF1R = target: T2, IGF1R (Homo sapiens, UniProt P08069); assay: IGF1R kinase assay; settings: Table 1; read-out: IGF1R IC50
T2 construct: 6×His- or GST-tagged kinase domain fragments of the corresponding RTKs expressed in baculovirus system; host or cells: baculovirus system
Description: as §1, §2

Chain of ALK (Q9UM73 with tags, fused parts or gaps): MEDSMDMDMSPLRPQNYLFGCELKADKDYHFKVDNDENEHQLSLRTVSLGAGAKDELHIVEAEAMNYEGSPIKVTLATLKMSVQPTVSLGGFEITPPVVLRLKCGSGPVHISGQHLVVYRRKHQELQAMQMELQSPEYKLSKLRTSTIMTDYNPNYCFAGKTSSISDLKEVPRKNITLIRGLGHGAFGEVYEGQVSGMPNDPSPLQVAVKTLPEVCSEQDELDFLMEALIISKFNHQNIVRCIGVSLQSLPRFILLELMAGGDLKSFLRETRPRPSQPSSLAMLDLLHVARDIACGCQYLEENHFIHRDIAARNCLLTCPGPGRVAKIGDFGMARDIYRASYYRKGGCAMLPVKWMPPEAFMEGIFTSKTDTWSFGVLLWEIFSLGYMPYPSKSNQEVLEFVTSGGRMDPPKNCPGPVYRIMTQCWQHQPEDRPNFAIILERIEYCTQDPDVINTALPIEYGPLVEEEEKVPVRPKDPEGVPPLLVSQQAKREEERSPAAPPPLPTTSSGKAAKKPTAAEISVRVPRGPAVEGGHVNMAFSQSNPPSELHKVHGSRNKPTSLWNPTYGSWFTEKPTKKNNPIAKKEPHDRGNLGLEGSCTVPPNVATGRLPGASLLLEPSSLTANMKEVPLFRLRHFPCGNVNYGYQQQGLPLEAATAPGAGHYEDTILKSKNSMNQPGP
T1 sequence (P06213 1023-1298 limits assumed): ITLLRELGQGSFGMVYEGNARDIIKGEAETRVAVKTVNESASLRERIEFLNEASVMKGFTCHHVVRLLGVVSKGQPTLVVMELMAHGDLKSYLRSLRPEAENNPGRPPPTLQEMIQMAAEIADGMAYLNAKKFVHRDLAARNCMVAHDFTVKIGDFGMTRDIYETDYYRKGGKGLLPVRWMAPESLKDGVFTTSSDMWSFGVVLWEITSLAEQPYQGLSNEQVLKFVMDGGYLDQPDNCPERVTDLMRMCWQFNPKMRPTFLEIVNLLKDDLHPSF
T2 sequence (P08069 999-1274 limits assumed): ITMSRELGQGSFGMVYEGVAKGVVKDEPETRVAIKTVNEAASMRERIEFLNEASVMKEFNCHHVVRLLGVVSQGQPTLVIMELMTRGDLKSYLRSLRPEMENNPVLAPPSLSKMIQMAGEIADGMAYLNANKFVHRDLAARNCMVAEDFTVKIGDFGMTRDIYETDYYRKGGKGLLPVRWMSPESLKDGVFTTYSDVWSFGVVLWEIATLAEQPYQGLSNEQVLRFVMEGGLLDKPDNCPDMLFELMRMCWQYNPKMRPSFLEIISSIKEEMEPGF

pIC50 (IRK)	pIC50 (ALK)	pIC50 (IGF1R)	SMILES
6.00 to 6.60	< 6.00	< 6.00	C[C@H](Cc1cccs1)Nc1cc[nH]c(=O)c1-c1nc2cc3c(cc2[nH]1)C(=O)N(CCCN1CCCC1)C3
< 6.00	6.60 to 7.00	< 6.00	CC(Cc1cccs1)Nc1cc[nH]c(=O)c1-c1nc2cc3c(cc2[nH]1)C(=O)N(CCCN1CCCC1)C3=O (stereo not drawn)
6.00 to 6.60	< 6.00	< 6.00	Cc1ccc(C(F)(F)F)cc1C[C@H](C)Nc1cc[nH]c(=O)c1-c1nc2cc3c(cc2[nH]1)CN(CCN1CCCC1)C3=O
< 6.00	< 6.00	< 6.00	Cc1ccc(N(C)C)cc1C[C@H](C)Nc1cc[nH]c(=O)c1-c1nc2cc3c(cc2[nH]1)CN(CCN1CCCC1)C3=O
< 6.00	6.60 to 7.00	6.60 to 7.00	Cc1ccc(F)cc1C[C@H](C)Nc1cc[nH]c(=O)c1-c1nc2cc3c(cc2[nH]1)CN(CCN1CCOCC1)C3=O
< 6.00	< 6.00	< 6.00	C[C@H](Cc1cccs1)Nc1cc[nH]c(=O)c1-c1nc2cc3c(cc2[nH]1)C(=O)N(CCCN1CCCC1)C3=O
< 6.00	7.00 to 8.00	6.00 to 6.60	C[C@@H](Cc1cc(F)cc(F)c1F)Nc1cc[nH]c(=O)c1-c1nc2cc3c(cc2[nH]1)CN(CCN1CCOCC1)C3=O
6.00 to 6.60	6.60 to 7.00	6.00 to 6.60	C[C@@H](Cc1cc(F)ccc1Cl)Nc1cc[nH]c(=O)c1-c1nc2cc3c(cc2[nH]1)CN(CCN1CCCC1)C3=O
< 6.00	6.00 to 6.60	< 6.00	Cc1ccc(C(F)(F)F)cc1C[C@H](C)Nc1cc[nH]c(=O)c1-c1nc2cc3c(cc2[nH]1)CN(CCN1CCOCC1)C3=O
6.00 to 6.60	7.00 to 8.00	6.60 to 7.00	COc1ccc(F)cc1C[C@H](C)Nc1cc[nH]c(=O)c1-c1nc2cc3c(cc2[nH]1)CN(CCN(C)C)C3=O
6.60 to 7.00	6.00 to 6.60	6.00 to 6.60	C[C@@H](Cc1cccs1)Nc1cc[nH]c(=O)c1-c1nc2cc3c(cc2[nH]1)C(=O)N(CCN1CCCC1)C3
6.00 to 6.60	7.00 to 8.00	< 6.00	Cc1ccc(F)cc1C[C@H](C)Nc1cc[nH]c(=O)c1-c1nc2cc3c(cc2[nH]1)CN(CCN1CCC[C@H]1C)C3=O [drawing 339]
6.00 to 6.60	6.00 to 6.60	6.60 to 7.00	Cc1ccc(C(F)(F)F)cc1C[C@H](C)Nc1cc[nH]c(=O)c1-c1nc2cc3c(cc2[nH]1)CN(CCN(C)C)C3=O
	7.00 to 8.00	< 6.00	C[C@@H](Cc1sccc1Cl)Nc1cc[nH]c(=O)c1-c1nc2cc3c(cc2[nH]1)C(=O)N([C@@H](C)CN(C)C)C3=O
	6.60 to 7.00	6.60 to 7.00	Cc1ccsc1CC(C)Nc1cc[nH]c(=O)c1-c1nc2cc3c(cc2[nH]1)C(=O)N(CCCN1CCCC1)C3 (stereo not drawn)
	6.60 to 7.00	6.00 to 6.60	Cc1ccsc1C[C@H](C)Nc1cc[nH]c(=O)c1-c1nc2cc3c(cc2[nH]1)CN(CCN1CCS(=O)(=O)CC1)C3=O

Continued, compound first:

SMILES	pIC50 (IRK)	pIC50 (ALK)	pIC50 (IGF1R)
COc1ccc(F)cc1C[C@H](C)Nc1cc[nH]c(=O)c1-c1nc2cc3c(cc2[nH]1)CN(CCN1CCOCC1)C3=O	< 6.00	6.60 to 7.00	6.60 to 7.00
C[C@@H](Cc1cccs1)Nc1cc[nH]c(=O)c1-c1nc2cc3c(cc2[nH]1)C(=O)N(C1CCN(CCS(C)(=O)=O)CC1)C3	6.00 to 6.60	6.60 to 7.00	6.60 to 7.00
Cc1ccc(F)cc1C[C@H](C)Nc1cc[nH]c(=O)c1-c1nc2cc3c(cc2[nH]1)C(=O)N(CCN(C)C)C3=O	< 6.00	6.60 to 7.00	6.60 to 7.00
C[C@H](Cc1cccs1)Nc1cc[nH]c(=O)c1-c1nc2c(Cl)c3c(cc2[nH]1)C(=O)N(C1CCN(C)CC1)C3=O	< 6.00	< 6.00	< 6.00
C[C@H](Nc1cc[nH]c(=O)c1-c1nc2cc3c(cc2[nH]1)C(=O)N(CCCN1CCCC1)C3)[C@H](O)c1ccccc1	6.00 to 6.60	6.60 to 7.00	6.00 to 6.60
C[C@@H](Cc1sccc1Cl)Nc1cc[nH]c(=O)c1-c1nc2cc3c(cc2[nH]1)CN(CCN1CCCC1)C3=O	6.60 to 7.00	7.00 to 8.00	6.60 to 7.00
CC(Cc1cccs1)N(C)c1cc[nH]c(=O)c1-c1nc2cc3c(cc2[nH]1)C(=O)N(CCCN1CCCC1)C3 (stereo not drawn)	< 6.00	< 6.00	< 6.00
C[C@@H](Cc1cc(F)cc(F)c1F)Nc1cc[nH]c(=O)c1-c1nc2cc3c(cc2[nH]1)CN(CCN(C)C)C3=O [drawing 325]	6.00 to 6.60	> 8.00	6.60 to 7.00
CC(Cc1cccs1)Nc1cc[nH]c(=O)c1-c1nc2cc3c(cc2[nH]1)C(=O)N(C1CCN(C)CC1)C3=O (stereo not drawn)	< 6.00	6.00 to 6.60	< 6.00
CCc1ccccc1C[C@H](C)Nc1cc[nH]c(=O)c1-c1nc2cc3c(cc2[nH]1)CN(CCN1CCCC1)C3=O	6.00 to 6.60	7.00 to 8.00	< 6.00
Cc1ccc(F)cc1C[C@H](C)Nc1cc[nH]c(=O)c1-c1nc2c(C)c3c(cc2[nH]1)CN(CCN1CCCC1)C3=O [drawing 321]	6.60 to 7.00	> 8.00	6.60 to 7.00
C[C@@H](Cc1cccs1)Nc1cc[nH]c(=O)c1-c1nc2cc3c(cc2[nH]1)C(=O)N(CCCN(C)C)C3	6.60 to 7.00	6.60 to 7.00	6.00 to 6.60
C[C@@H]1CCCN1CCN1Cc2cc3[nH]c(-c4c(N[C@@H](C)Cc5cc(F)cc(F)c5F)cc[nH]c4=O)nc3cc2C1=O [drawing 340]	6.00 to 6.60	> 8.00	< 6.00
C[C@@H](Cc1c(F)c(F)cc(F)c1F)Nc1cc[nH]c(=O)c1-c1nc2cc3c(cc2[nH]1)CN(CCN1CCCC1)C3=O [drawing 345]	6.00 to 6.60	> 8.00	< 6.00
CN1CCC(N2C(=O)c3cc4nc(-c5c(N[C@@H](CO)Cc6ccccc6)cc[nH]c5=O)[nH]c4cc3C2=O)CC1	< 6.00	6.60 to 7.00	< 6.00
C[C@@H](Cc1cc(F)cc(F)c1F)Nc1cc[nH]c(=O)c1-c1nc2cc3c(cc2[nH]1)CN(CCN1CCCC1)C3=O [drawing 327]	6.00 to 6.60	7.00 to 8.00	6.00 to 6.60
COc1ccc(OC)c(C[C@H](C)Nc2cc[nH]c(=O)c2-c2nc3cc4c(cc3[nH]2)CN(CCN2CCCC2)C4=O)c1	6.00 to 6.60	6.60 to 7.00	< 6.00
CCS(=O)(=O)CCN1CCC(N2Cc3cc4nc(-c5c(N[C@@H](C)Cc6cccs6)cc[nH]c5=O)[nH]c4cc3C2=O)CC1	6.60 to 7.00	6.60 to 7.00	6.00 to 6.60
COc1ccc(C)c(C[C@H](C)Nc2cc[nH]c(=O)c2-c2nc3cc4c(cc3[nH]2)CN(CCN2CCCC2)C4=O)c1	6.00 to 6.60	7.00 to 8.00	< 6.00
Cc1ccsc1C[C@H](C)Nc1cc[nH]c(=O)c1-c1nc2cc3c(cc2[nH]1)CN(CCN1CCCC1)C3=O	7.00 to 8.00	7.00 to 8.00	6.00 to 6.60
Cc1ccc(F)cc1C[C@H](C)Nc1cc[nH]c(=O)c1-c1nc2cc3c(cc2[nH]1)CNC3=O	< 6.00	7.00 to 8.00	6.00 to 6.60
COc1cc(F)c(F)c(C[C@H](C)Nc2cc[nH]c(=O)c2-c2nc3cc4c(cc3[nH]2)CN(CCN2CCCC2)C4=O)c1OC	6.00 to 6.60	7.00 to 8.00	< 6.00
Cc1ccsc1C[C@H](C)Nc1cc[nH]c(=O)c1-c1nc2cc3c(cc2[nH]1)CN(CCN1CCC[C@@H]1C)C3=O		6.60 to 7.00	6.00 to 6.60
C[C@H](Cc1cccs1)Nc1cc[nH]c(=O)c1-c1nc2c(Cl)c3c(cc2[nH]1)C(=O)N(C1CCN(C)CC1)C3		< 6.00	6.00 to 6.60
C[C@@H](Cc1cccs1)Nc1cc[nH]c(=O)c1-c1nc2cc3c(cc2[nH]1)C(=O)N(C1CCN(C)CC1)C3		6.60 to 7.00	7.00 to 8.00
